Assay results from patent US6472348B1, “Pyridone derivatives and herbicides” (Kumiai Chemical Industry Co., Ltd., priority 1996, dated 2002).

Legend:
wheat (Tr) [1] = assay: Test Example 9: crop plant selectivity by upland field foliage treatment (wheat), phytotoxicity; details: dose 1.6 g ai/10a, 14th day after treatment;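 also: grade of crop injury; 5 = at least 90%; 4 = 70 to 90%; 3 = 50 to 70%; 2 = 30 to 50%; 1 = 10 to 30%; 0 = under 10%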
Protocol: (§1) (Test on Crop Plant Selectivity by Upland Field Foliage Treatment)
(§2) In a plastic pot (surface area: 600 cm^2) filled with sand, wheat (Tr), pale smartweed (Po), slender amaranth (Am), common lambsquarters (Ch) and China jute (Ab) were sown and cultured in a green house for 2 weeks. […] The plants were then cultured in a green house, and the evaluation of the herbicidal effects and phytotoxicity was conducted on the 14th day after the treatment in accordance with the standards as identified in Table 47.

pale smartweed (Po) [2] = assay: Test Example 5: crop plant selectivity by upland field soil treatment (wheat), herbicidal effects; format: in vivo; parameters: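 grade of growth control; 5 = at least 90%; 4 = 70 to 90%; 3 = 50 to 70%; 2 = 30 to 50%; 1 = 10 to 30%; 0 = under 10%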; details: dose 6.3 g ai/10a, 21st day after application
Protocol: (§3) (Test on Crop Plant Selectivity by Upland Field Soil Treatment)
(§4) In a plastic pot (surface area: 600 cm^2) filled with sand, wheat (Tr), Diaitaria ciliaris (Di), green foxtail (Se), pale smartweed (Po), slender amaranth (Am), common lambsquarters (Ch) and China jute (Ab) were sown and covered with soil. […] The plants were then cultured in a green house, and the evaluation of the herbicidal effects and phytotoxicity was conducted on the 21st day after the application in accordance with the standards as identified in Table 47. Symbol—represents “not tested”.

[3] = system: common lambsquarters (Ch); assay: as above; format: in vivo; parameters: scale not given here; details: dose 6.3 g ai/10a, 21st day after application
Protocol: as §3, §4

China jute (Ab) [4] = assay: as above; format: in vivo; parameters: scale not given here; details: dose 6.3 g ai/10a, 21st day after application
Protocol: as §3, §4

slender amaranth (Am) [5] = assay: as above; format: in vivo; parameters: scale not given here; details: dose 6.3 g ai/10a, 21st day after application
Protocol: as §3, §4

green foxtail (Se) [6] = assay: as above; format: in vivo; parameters: scale not given here; details: dose 6.3 g ai/10a, 21st day after application
Protocol: as §3, §4

cotton (Go) = assay: Test Example 4: crop plant selectivity by upland field soil treatment (cotton), phytotoxicity; format: in vivo; parameters: scale not given here; details: dose 6.3 g ai/10 a, evaluated 21st day after application
Protocol: as §3
(§5) In a plastic pot (surface area: 600 cm^2) filled with sand, cotton (Go), Diaitaria ciliaris (Di), green foxtail (Se), pale smartweed (Po), slender amaranth (Am), common lambsquarters (Ch) and China jute (Ab) were sown and covered with soil. […] The plants were then cultured in a green house, and the evaluation of the herbicidal effects and phytotoxicity was conducted on the 21st day after the application in accordance with the standards as identified in Table 47. Symbol—represents “not tested”.

pale smartweed (Po) [7] = assay: Test Example 4: crop plant selectivity by upland field soil treatment (cotton), herbicidal effects; format: in vivo; parameters: scale not given here; details: dose 6.3 g ai/10 a, evaluated 21st day after application
Protocol: as §3, §5

[8] = system: common lambsquarters (Ch); assay: as above; format: in vivo; parameters: scale not given here; details: dose 6.3 g ai/10 a, evaluated 21st day after application
Protocol: as §3, §5

China jute (Ab) [9] = assay: as above; format: in vivo; parameters: scale not given here; details: dose 6.3 g ai/10 a, evaluated 21st day after application
Protocol: as §3, §5

slender amaranth (Am) [10] = assay: as above; format: in vivo; parameters: scale not given here; details: dose 6.3 g ai/10 a, evaluated 21st day after application
Protocol: as §3, §5

green foxtail (Se) [11] = assay: as above; format: in vivo; parameters: scale not given here; details: dose 6.3 g ai/10 a, evaluated 21st day after application
Protocol: as §3, §5

pale smartweed (Po) [12] = assay: Test Example 6: crop plant selectivity by upland field soil treatment (soybean), herbicidal effects; format: in vivo; parameters: scale not given here; details: dose 6.3 g ai/10a, 21st day after application
Protocol: as §3
(§6) In a plastic pot (surface area: 600 cm^2) filled with sand, soybean (Gl), Diaitaria ciliaris (Di), green foxtail (Se), Johnsongrass (So), pale smartweed (Po), slender amaranth (Am), common lambsquarters (Ch) and China jute (Ab) were sown and covered with soil. […] The plants were then cultured in a green house, and the evaluation of the herbicidal effects and phytotoxicity was conducted on the 21st day after the application in accordance with the standards as identified in Table 47. Symbol—represents “not tested”.

[13] = system: common lambsquarters (Ch); assay: as above; format: in vivo; parameters: scale not given here; details: dose 6.3 g ai/10a, 21st day after application
Protocol: as §3, §6

China jute (Ab) [14] = assay: as above; format: in vivo; parameters: scale not given here; details: dose 6.3 g ai/10a, 21st day after application
Protocol: as §3, §6

slender amaranth (Am) [15] = assay: as above; format: in vivo; parameters: scale not given here; details: dose 6.3 g ai/10a, 21st day after application
Protocol: as §3, §6

green foxtail (Se) [16] = assay: as above; format: in vivo; parameters: scale not given here; details: dose 6.3 g ai/10a, 21st day after application
Protocol: as §3, §6

pale smartweed (Po) [17] = assay: Test Example 9: crop plant selectivity by upland field foliage treatment (wheat), herbicidal effects; format: in vivo; parameters: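 grade of growth control; 5 = at least 90%; 4 = 70 to 90%; 3 = 50 to 70%; 2 = 30 to 50%; 1 = 10 to 30%; 0 = under 10%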; details: dose 1.6 g ai/10a, 14th day after treatment
Protocol: as §1, §2

[18] = system: common lambsquarters (Ch); assay: as above; format: in vivo; parameters: scale not given here; details: dose 1.6 g ai/10a, 14th day after treatment
Protocol: as §1, §2

China jute (Ab) [19] = assay: as above; format: in vivo; parameters: scale not given here; details: dose 1.6 g ai/10a, 14th day after treatment
Protocol: as §1, §2

slender amaranth (Am) [20] = assay: as above; format: in vivo; parameters: scale not given here; details: dose 1.6 g ai/10a, 14th day after treatment
Protocol: as §1, §2

barnyardgrass (Ec) [21] = assay: Test Example 2: herbicidal effects by upland field soil treatment; format: in vivo; details: 100 g of the active ingredient per 10 ares, evaluated on the 21st day after application;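 also: grade of growth control; 5 = at least 90%; 4 = 70 to 90%; 3 = 50 to 70%; 2 = 30 to 50%; 1 = 10 to 30%; 0 = under 10%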
Excerpt: (§7) (Test on Herbicidal Effects by Upland Field Soil Treatment)

pale smartweed (Po) [22] = assay: as above; format: in vivo; details: 100 g of the active ingredient per 10 ares, evaluated on the 21st day after application
Excerpt: as §7

rice flatsedge (Ci) [23] = assay: as above; format: in vivo; details: 100 g of the active ingredient per 10 ares, evaluated on the 21st day after application
Excerpt: as §7

[24] = system: common lambsquarters (Ch); assay: as above; format: in vivo; details: 100 g of the active ingredient per 10 ares, evaluated on the 21st day after application
Excerpt: as §7

Digitaria ciliaris (Di) = assay: as above; format: in vivo; details: 100 g of the active ingredient per 10 ares, evaluated on the 21st day after application;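 also: grade of growth control; 5 = at least 90%; 4 = 70 to 90%; 3 = 50 to 70%; 2 = 30 to 50%; 1 = 10 to 30%; 0 = under 10%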
Excerpt: as §7

slender amaranth (Am) [25] = assay: as above; format: in vivo; details: 100 g of the active ingredient per 10 ares, evaluated on the 21st day after application
Excerpt: as §7

wheat (Tr) [26] = assay: Test Example 5: crop plant selectivity by upland field soil treatment (wheat), phytotoxicity; format: in vivo; parameters: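 grade of crop injury; 5 = at least 90%; 4 = 70 to 90%; 3 = 50 to 70%; 2 = 30 to 50%; 1 = 10 to 30%; 0 = under 10%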; details: dose 6.3 g ai/10a, 21st day after application
Protocol: as §3, §4

barnyardgrass (Ec) [27] = assay: Test Example 1: herbicidal effects by paddy field soil treatment; format: in vivo; details: 100 g of the active ingredient per 10 ares, 21st day after the application, index 0-5 of Table 47;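 also: grade of growth control; 5 = at least 90%; 4 = 70 to 90%; 3 = 50 to 70%; 2 = 30 to 50%; 1 = 10 to 30%; 0 = under 10%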
How it was run: (§8)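 Greenhouse pot test in flooded paddy soil, dosed at 100 g a.i. per 10 ares; effect scored on day 21.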

monochoria (Mo) = assay: as above; format: in vivo; details: 100 g of the active ingredient per 10 ares, 21st day after the application, index 0-5 of Table 47
How it was run: as §8

bulrush (Sc) = assay: as above; format: in vivo; details: 100 g of the active ingredient per 10 ares, 21st day after the application, index 0-5 of Table 47
How it was run: as §8

barnyardgrass (Ec) [28] = assay: Test Example 3: herbicidal effects by upland field foliage treatment; format: in vivo; parameters: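 grade of growth control; 5 = at least 90%; 4 = 70 to 90%; 3 = 50 to 70%; 2 = 30 to 50%; 1 = 10 to 30%; 0 = under 10%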; details: 100 g active ingredient per 10 ares, evaluated 14th day after treatment
How it was run: (§9)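 Scoring used a standard effect scale on the 14th day post-treatment, with plants held in a greenhouse throughout. Foliar application was made to weeds raised from seed in sand-filled pots for 2 weeks.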

pale smartweed (Po) [29] = assay: as above; format: in vivo; parameters: scale not given here; details: 100 g active ingredient per 10 ares, evaluated 14th day after treatment
How it was run: as §9

rice flatsedge (Ci) [30] = assay: as above; format: in vivo; parameters: scale not given here; details: 100 g active ingredient per 10 ares, evaluated 14th day after treatment
How it was run: as §9

[31] = system: common lambsquarters (Ch); assay: as above; format: in vivo; parameters: scale not given here; details: 100 g active ingredient per 10 ares, evaluated 14th day after treatment
How it was run: as §9

slender amaranth (Am) [32] = assay: as above; format: in vivo; parameters: scale not given here; details: 100 g active ingredient per 10 ares, evaluated 14th day after treatment
How it was run: as §9

Diaitaria ciliaris (Di) = assay: as above; format: in vivo; parameters: scale not given here; details: 100 g active ingredient per 10 ares, evaluated 14th day after treatment
How it was run: as §9

soybean (Gl) = assay: Test Example 6: crop plant selectivity by upland field soil treatment (soybean), phytotoxicity; format: in vivo; parameters: scale not given here; details: dose 6.3 g ai/10a, 21st day after application
Protocol: as §3, §6

With CCN1C(=O)COc2cc(F)c(-c3ccc(C(F)(F)F)n(C)c3=O)cc21 [Compound 2-15] the “Phytotoxicity Tr” value (wheat (Tr) [1]) was 2, the “Herbicidal effects Po” value (pale smartweed (Po) [2]) was 5 and the “Herbicidal effects Ch” value [3] was 5. The “Herbicidal effects Ab” value (China jute (Ab) [4]) was 5, the “Herbicidal effects Am” value (slender amaranth (Am) [5]) was 5 and the “Herbicidal effects Se” value (green foxtail (Se) [6]) was 5. The “Phytotoxicity Go” value (cotton (Go)) was 0, the “Herbicidal effects Po” value (pale smartweed (Po) [7]) was 5 and the “Herbicidal effects Ch” value [8] was 5. The “Herbicidal effects Ab” value (China jute (Ab) [9]) was 5, the “Herbicidal effects Am” value (slender amaranth (Am) [10]) was 5 and the “Herbicidal effects Se” value (green foxtail (Se) [11]) was 5. The “Herbicidal effects Po” value (pale smartweed (Po) [12]) was 5, the “Herbicidal effects Ch” value [13] was 5 and the “Herbicidal effects Ab” value (China jute (Ab) [14]) was 5. The “Herbicidal effects Am” value (slender amaranth (Am) [15]) was 5, the “Herbicidal effects Se” value (green foxtail (Se) [16]) was 5 and the “Herbicidal effects Po” value (pale smartweed (Po) [17]) was 5. For the same compound, the “Herbicidal effects Ch” value [18] was 5, the “Herbicidal effects Ab” value (China jute (Ab) [19]) was 5 and the “Herbicidal effects Am” value (slender amaranth (Am) [20]) was 5. For the same compound, the “Herbicidal effects Ec” value (barnyardgrass (Ec) [21]) was 5, the “Herbicidal effects Po” value (pale smartweed (Po) [22]) was 5 and the “Herbicidal effects Ci” value (rice flatsedge (Ci) [23]) was 5. For the same compound, the “Herbicidal effects Ch” value [24] was 5, the “Herbicidal effects Di” value (Digitaria ciliaris (Di)) was 5 and the “Herbicidal effects Am” value (slender amaranth (Am) [25]) was 5. The “Phytotoxicity Tr” value (wheat (Tr) [26]) was 1, the “Herbicidal effects Ec” value (barnyardgrass (Ec) [27]) was 5 and the “Herbicidal effects Mo” value (monochoria (Mo)) was 5. For the same compound, the “Herbicidal effects Sc” value (bulrush (Sc)) was 5, the “Herbicidal effects Ec” value (barnyardgrass (Ec) [28]) was 5 and the “Herbicidal effects Po” value (pale smartweed (Po) [29]) was 5. For the same compound, the “Herbicidal effects Ci” value (rice flatsedge (Ci) [30]) was 5, the “Herbicidal effects Ch” value [31] was 5 and the “Herbicidal effects Am” value (slender amaranth (Am) [32]) was 5. The “Herbicidal effects Di” value (Diaitaria ciliaris (Di)) was 5 and the “Phytotoxicity Gl” value (soybean (Gl)) was 1.

For C#CCN1C(=O)C(C)Oc2cc(Cl)c(-c3ccc(C(F)(F)F)n(C)c3=O)cc21 (centres unmarked) [Compound No. 2′-1, 3-[7-chloro-2,3-dihyro-2-methyl-4-(2-propynyl)-1,4-benzoxazin-3-on-6-yl]-6-trifluoromethyl-1-methyl-2(1H)-pyridone], the “Herbicidal effects Po” value (pale smartweed (Po) [2]) was 5, the “Herbicidal effects Ch” value [3] was 5 and the “Herbicidal effects Ab” value (China jute (Ab) [4]) was 5. For the same compound, the “Herbicidal effects Am” value (slender amaranth (Am) [5]) was 5, the “Herbicidal effects Se” value (green foxtail (Se) [6]) was 5 and the “Phytotoxicity Go” value (cotton (Go)) was 1. The “Herbicidal effects Po” value (pale smartweed (Po) [7]) was 5, the “Herbicidal effects Ch” value [8] was 5 and the “Herbicidal effects Ab” value (China jute (Ab) [9]) was 5. The “Herbicidal effects Am” value (slender amaranth (Am) [10]) was 5, the “Herbicidal effects Se” value (green foxtail (Se) [11]) was 5 and the “Herbicidal effects Po” value (pale smartweed (Po) [12]) was 5. For the same compound, the “Herbicidal effects Ch” value [13] was 5, the “Herbicidal effects Ab” value (China jute (Ab) [14]) was 5 and the “Herbicidal effects Am” value (slender amaranth (Am) [15]) was 5. For the same compound, the “Herbicidal effects Se” value (green foxtail (Se) [16]) was 5, the “Herbicidal effects Ec” value (barnyardgrass (Ec) [21]) was 5 and the “Herbicidal effects Po” value (pale smartweed (Po) [22]) was 5. For the same compound, the “Herbicidal effects Ci” value (rice flatsedge (Ci) [23]) was 5, the “Herbicidal effects Ch” value [24] was 5 and the “Herbicidal effects Di” value (Digitaria ciliaris (Di)) was 5. The “Herbicidal effects Am” value (slender amaranth (Am) [25]) was 5, the “Phytotoxicity Tr” value (wheat (Tr) [26]) was 2 and the “Herbicidal effects Ec” value (barnyardgrass (Ec) [27]) was 5. For the same compound, the “Herbicidal effects Mo” value (monochoria (Mo)) was 5, the “Herbicidal effects Sc” value (bulrush (Sc)) was 5 and the “Herbicidal effects Ec” value (barnyardgrass (Ec) [28]) was 5. For the same compound, the “Herbicidal effects Po” value (pale smartweed (Po) [29]) was 5, the “Herbicidal effects Ci” value (rice flatsedge (Ci) [30]) was 5 and the “Herbicidal effects Ch” value [31] was 5. For the same compound, the “Herbicidal effects Am” value (slender amaranth (Am) [32]) was 5, the “Herbicidal effects Di” value (Diaitaria ciliaris (Di)) was 5 and the “Phytotoxicity Gl” value (soybean (Gl)) was 1.
